Assay results published in patent US6908920B2, “Pyrimidine derivatives” (AstraZeneca AB, priority 2000, dated 2005).

Molecular target: T1, CDK2/Cyclin E (Homo sapiens, UniProt P24941)
T1 construct: made in house; host or cells: Sf21 (Spodoptera frugiperda) insect cells, baculovirus co-infection, for CDK2/cyclin E. E. coli BL21 (DE3) pLysS for the GST-Rb substrate
Experiment: in vitro kinase assay, Scintillation Proximity Assay, incorporation of [γ-33-P]-ATP into GST-Rb
Assay type: biochemical
Details: in-vitro SPA kinase assay, GST-Rb substrate, read-out: CDK2 inhibitory activity IC50
Description: The compounds were tested in an in vitro kinase assay in 96 well format using Scintillation Proximity Assay (SPA—obtained from Amersham) for measuring incorporation of [γ-33-P]-Adenosine Triphosphate into a test substrate (GST-Retinoblastoma protein; GST-Rb). In each well was placed the compound to be tested (diluted in DMSO and water to correct concentrations) and in control wells either roscovitine as an inhibitor control or DMSO as a positive control. […]
The plates were sealed with Topseal-S plate sealers, left for two hours then spun at 2500 rpm, 1124×g., for 5 minutes. The plates were read on a Topcount for 30 seconds per well. […]
E. coli paste was resuspended in 10 ml/g of NETN buffer (50 mM Tris pH 7.5, 120 mM NaCl, 1 mM EDTA, 0.5% v/v NP-40, 1 mM PMSF, 1 ug/mnl leupeptin, 1 ug/ml aprotinin and 1 ug/ml pepstatin) and sonicated for 2×45 seconds per 100 ml homogenate. […] The final product was analysed by Sodium Dodeca Sulfate (SDS) PAGE (Polyacrylamide gel) using 8-16% Tris-Glycine gels (Novex, San Diego, USA).
The open reading frames of CDK2 and Cyclin E were isolated by reverse transcriptase-PCR using HeLa cell and activated T cell mRNA as a template and cloned into the insect expression vector pVL1393 (obtained from Invitrogen 1995 catalogue number: V1392-20). […]

Question: `CC(C)NCCCNS(=O)(=O)c1ccc(Nc2ncc(C#N)c(N3CCOCC3)n2)cc1` [Example 1, 5-Cyano-4-morpholino-2-{4-[N-(3-isopropylaminopropyl)sulphamoyl]anilino}pyrimidine] was tested. Which IC50 did it give?
Answer: The IC50 was 148 nM.
